Test results reported in patent publication US20250248979A1, “NOVEL GPX4 INHIBITORS AND USES THEREOF” (THE TRUSTEES OF COLUMBIA UNIVERSITY IN THE CITY OF NEW YORK, priority 2022, published 2025).
Where two headings read alike, the source gives them in different places.

Experiments:
HT-1080 cells = test: Cellular dose response assay, HT-1080 with and without Fer-1; assay type: cell-based, human; settings: for Selectivity: ferroptosis selectivity, IC50 with Fer-1 / IC50
Procedure, shortened: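 1500 cells/well, o/n; 12-pt 2-fold dilns, ±Fer-1 (HT-1080), 0.4% DMSO, n=3 technical; 48 h, 37 °C/5% CO2; CellTiter-Glo lum. Huh7, HLF, HT-1080 grown in DMEM/10% HI-FBS; SK-HEP-1 in EMEM/10% HI-FBS.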

HepG2 cells = test: Cellular dose response assay, HepG2; assay type: cell-based, human
From the text: (§1) HT-1080 (human [Homo sapiens] […] fibrosarcoma), A-673 (human [Homo sapiens] […] Ewing's sarcoma), and SK-HEP-1 (human [Homo sapiens] […] hepatic adenocarcinoma), cells were obtained from ATCC. Huh7 (human [Homo sapiens] […] hepatocellular carcinoma), HLF (human [Homo sapiens] […] hepatocellular carcinoma), HepG2 (human [Homo sapiens] […] hepatocellular carcinoma), cells were obtained from the Cancer Cell Bank at Columbia University Irving Medical Center. HT-1080, A-673, Huh-7, and HLF cells were grown in Dulbecco's Modified Eagle Medium (DMEM) supplemented with 10% heat inactivated fetal bovine serum (HI-FBS), 1% non-essential amino acids, and 1% penicillin streptomycin. HepG2 and SK-HEP-1 cells were grown in Eagle's Minimum Essential Medium (EMEM) supplemented with 10% HI-FBS, and 1% penicillin-streptomycin. All cells were cultured at 37° C. and 5% CO2.
(§2) HT-1080, HepG2, Huh7, HLF, and SK-HEP-1 cells were seeded into opaque white 384-well plates at 1500 cells per well then incubated at 37° C. with 5% CO2 overnight. The next day, compounds of interest were dissolved in DMSO and 12-point 2-fold dilution series were prepared with and without Fer-1. Cells were treated in triplicate (final DMSO concentration of 0.4% in all wells, including DMSO-only control wells) and incubated for a further 48 hours at 37° C. and 5% CO2. Cell viability was evaluated using CellTiter-Glo (Promega G7573) and luminescence was recorded on a Victor 5 plate reader. Data were analyzed in GraphPad Prism 9 and error bars represent standard deviation values for three technical replicates in a representative experiment.

GPX4 = biological target: T1, GPX4 (Homo sapiens, UniProt P36969); test: GPX4 activity assay in cell lysates (NADPH-coupled); assay type: biochemical; set-up: endogenous in cells; host or cells: A-673 cell lysate; settings: for GPX4% inhibition at 200 (μM) / GPX4 inhibition: 200 μM; for GPX4% inhibition at 2.5 μM: 4th generation
T1 sequence (P36969 1-170 isoform P36969-2): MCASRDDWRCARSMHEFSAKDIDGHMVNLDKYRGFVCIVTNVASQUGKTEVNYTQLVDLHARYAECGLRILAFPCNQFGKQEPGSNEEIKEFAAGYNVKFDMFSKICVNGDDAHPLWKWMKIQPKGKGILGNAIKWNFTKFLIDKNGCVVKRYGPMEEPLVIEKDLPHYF
Procedure, shortened: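 Native GPX4 in lysates of A-673 cells grown with 20 nM sodium selenite; lysate preincubated with compound 45 min at 37 °C in pH 8.0 buffer with 3 mM GSH, 0.5 mM NADPH and glutathione reductase. Reaction started with phosphatidylcholine hydroperoxide; NADPH consumption followed at 340 nm over 25 min; triplicates.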

Huh7 cells = test: Cellular dose response assay, Huh7; assay type: cell-based, human; settings: Table 7
From the text: as §1, §2

HLF cells = test: Cellular dose response assay, HLF; assay type: cell-based, human; settings: Table 7
From the text: as §1, §2

SK-HEP-1 cells = test: Cellular dose response assay, SK-HEP-1; assay type: cell-based, human; settings: Table 7
From the text: as §1, §2

[1] = compounds alone, Table 7, read-out: IC50 (uM) HT1080^a
[2] = with fer-1, Table 7, read-out: IC50 (uM) HT1080^b
[3] = compounds alone, Table 7, read-out: IC50 (uM) HEPG2^a
[4] = with fer-1, Table 7, read-out: IC50 (uM) HEPG2^b
[5] = compounds alone, read-out: IC50 (uM) Huh7^a
[6] = with fer-1, read-out: IC50 (uM) Huh7^b
[7] = compounds alone, read-out: IC50 (uM) HLF^a
[8] = with fer-1, read-out: IC50 (uM) HLF^b
[9] = compounds alone, read-out: IC50 (uM) SKHEP1^a
[10] = with fer-1, read-out: IC50 (uM) SKHEP1^b
[11] = generation 1, mean ± s.d., n = 3
[12] = with Fer-1, Table 10, read-out: IC50 (μM) HT1080 + Fer-1
[13] = without Fer-1, Table 10, read-out: IC50 (μM) HT1080
[14] = read-out: IC50 against HT1080 cell lines

Row | Structure (SMILES) | IC50 (HT-1080 cells; [1]) [µM] | IC50 (HT-1080 cells; [2]) [µM] | IC50 (HepG2 cells; [3]) [µM] | IC50 (HepG2 cells; [4]) [µM] | IC50 (Huh7 cells; [5]) [µM] | IC50 (Huh7 cells; [6]) [µM] | IC50 (HLF cells; [7]) [µM] | IC50 (HLF cells; [8]) [µM] | IC50 (SK-HEP-1 cells; [9]) [µM] | IC50 (SK-HEP-1 cells; [10]) [µM] | Selectivity (HT-1080 cells) | IC50 (HT-1080 cells; [12]) [µM] | IC50 (HT-1080 cells; [13]) [µM] | GPX4% inhibition at 2.5 μM (GPX4) [%] | other results
1 | O=C(Nc1c[nH]c2ccccc12)n1ccnc1 [QW-065] |  |  |  |  |  |  |  |  |  |  |  |  |  |  | IC50 (HT-1080 cells; compounds alone, read-out: IC50 (μM) HT1080^a): > 400 µM; IC50 (HT-1080 cells; compounds and fer-1 1.0 μM, read-out: IC50 (μM) HT1080^b): > 400 µM; IC50 (HepG2 cells; compounds alone, read-out: IC50 (μM) HEPG2^a): > 400 µM; IC50 (HepG2 cells; compounds and fer-1 1.0 μM, read-out: IC50 (μM) HEPG2^b): > 400 µM; GPX4% inhibition at 200 (μM) (GPX4; mean ± s.d., n = 3): 32.4 ± 2.4%
2 | COc1ccc2cc(C(=O)NCC(C)(C)COC(=O)CBr)[nH]c2c1 [QW-303] | 4 | 6.1 | 4.7 | 12.7 | 6.3 | 16.8 | 2.5 | 5.7 | 5.1 | 17.1 |  |  |  |  | GPX4% inhibition at 200 (μM) (GPX4; [11]): 88.7 ± 2.3%
3 | O=C(CBr)OCCCNC(=O)c1cc2cc(Cl)ccc2[nH]1 [QW-305] | 1.9 | 5 | 1.9 | 7.2 | 3.8 | 26.1 | 0.7 | 4.3 | 2.3 | 10.9 |  |  |  |  | GPX4% inhibition at 200 (μM) (GPX4; [11]): 88.6 ± 3.1%
4 | CC(C)(COC(=O)CCl)NC(=O)c1[nH]c2ccccc2c1Br [QW-348] | 8.5 | 26 | 7.5 | 27.3 | 4.5 | 32.4 | 4.1 | 27.8 | 3.9 | 32.7 |  |  |  |  | GPX4% inhibition at 200 (μM) (GPX4; [11]): 99.6 ± 3.2%
5 | Cn1nc(C(=O)NC(C)(C)COC(=O)CCl)c2cc(Br)ccc21 [QW-356] | 3.1 | 58.3 | 6.7 | 73.5 | 2.5 | 112 | 1.1 | 60.9 | 0.8 | 81 |  |  |  |  | GPX4 inhibitory activity, result in words (GPX4): significant improvement on GPX4 inhibition over QW-314 and RSL3; GPX4 inhibition (GPX4): complete inhibition; GPX4% inhibition at 200 (μM) (GPX4; generation 2): 105.7 ± 2.5%
6 | CC(C)(COC(=O)CCl)NC(=O)c1nn(-c2ccccc2)c2ccccc12 [QW-357] | 9.1 | 40.1 | 9.2 | 55.7 | 3.5 | 58.7 | 2.9 | 36.4 | 3.8 | 50 |  |  |  |  | GPX4 inhibition (GPX4): complete inhibition; GPX4% inhibition at 200 (μM) (GPX4; generation 2): 104.8 ± 1.9%
7 | Cn1nc(C(=O)NC(C)(C)COC(=O)CCl)c2cccc(OC(=O)CCl)c21 [QW-360] | 12.7 | 46.7 | 24.8 | 40.3 | 9.1 | 175 | 6.7 | 27.1 | 3.5 | 44.4 |  |  |  |  | GPX4 inhibition (GPX4): complete inhibition; GPX4% inhibition at 200 (μM) (GPX4; generation 2): 101.9 ± 1.5%
8 | CC(C)Oc1ccc(-c2ccc3c(C(=O)NC(C)(C)COC(=O)CCl)nn(Cc4ccc(Cl)cc4)c3c2)cc1Cl [QW-841] |  |  |  |  |  |  |  |  |  |  | 38.5 | 28.5 | 0.74 | 91.3 ± 2.0 | ferroptosis induction / potency in HT-1080 cells, result in words (HT-1080 cells; RSL3 as control): outstanding cytotoxicity with sub-molar scale
9 | CSc1ccc(-c2ccc3c(C(=O)NC(C)(C)COC(=O)CCl)nn(Cc4ccc(Cl)cc4)c3c2)cc1Cl [QW-847] |  |  |  |  |  |  |  |  |  |  | 9.6 | 98.4 | 10.2 | 88.5 ± 16.1 | 
10 | COc1ccc(-c2ccc3c(C(=O)NC(C)(C)COC(=O)CCl)nn(Cc4cc(Cl)cc(Cl)c4)c3c2)cc1Cl [QW-851] |  |  |  |  |  |  |  |  |  |  | >920 | > 40 |  | 114.9 ± 23.5 | fold change in potency in the cell viability assay, QW-851 vs QW-446 (HT-1080 cells; benzyl vs methyl on the indazole): 10 fold; IC50 (HT-1080 cells; [14]): 0.0435 µM; GPX4 inhibitory activity, result in words (GPX4): greater GPX4 inhibitory activity than QW-446 at 2.5 μM concentration
11 | COc1ccc(-c2cc(Cl)cc(Cn3nc(C(=O)NC(C)(C)COC(=O)CCl)c4ccc(-c5ccc(OC)c(Cl)c5)cc43)c2)cc1Cl [QW-853] |  |  |  |  |  |  |  |  |  |  | 56.8 | 21 | 0.37 | 45.5 ± 34.3 | 
12 | CC(C)Oc1ccc(-c2ccc3c(C(=O)NC(C)(C)COC(=O)CCl)nn(Cc4cc(Cl)cc(Cl)c4)c3c2)cc1Cl [QW-857] |  |  |  |  |  |  |  |  |  |  | >790 | > 40 |  | 66.7 ± 26.2 | IC50 (HT-1080 cells; [14]): 0.0506 µM; GPX4 inhibitory activity, result in words (GPX4): greater GPX4 inhibitory activity than QW-446 at 2.5 μM concentration
13 | COc1ccc(-c2ccc3c(C(=O)NC(C)(C)COC(=O)CCl)nn(Cc4ccc(C(F)(F)F)cc4)c3c2)cc1Cl [QW-873] |  |  |  |  |  |  |  |  |  |  | 3.4 | 26.8 | 8 | 45.6 ± 39.7 | 
14 | CC(C)(COC(=O)CCl)NC(=O)c1nn(Cc2ccc(C(F)(F)F)cc2)c2cc(-c3ccc(N4CCOCC4)c(Cl)c3)ccc12 [QW-874] |  |  |  |  |  |  |  |  |  |  | 1.7 | 49 | 28.3 | 57.5 ± 24.5 | 
15 | CC(C)(COC(=O)CCl)NC(=O)c1nn(Cc2ccc(-c3ccc(N4CCOCC4)c(Cl)c3)cc2)c2cc(-c3ccc(N4CCOCC4)c(Cl)c3)ccc12 [QW-883] |  |  |  |  |  |  |  |  |  |  | 371.4 | 20.8 |  | 41.1 ± 40.9 | IC50 (HT-1080 cells; without Fer-1, Table 10, read-out: IC50 HT1080): 0.0564 µM
16 | COc1ccc(-c2cc(Cl)cc(Cn3nc(C(=O)NC(C)(C)C(C)(C)OC(=O)CCl)c4ccc(-c5ccc(OC)c(Cl)c5)cc43)c2)cc1Cl [QW-888] |  |  |  |  |  |  |  |  |  |  | 2.0 | 49.6 | 24.5 | 78.7 ± 5.0 | 
